molecular target: T1, EGFR L858R-T790M (Homo sapiens, UniProt P00533, L858R/T790M); assay: EGFR degradation, Total EGFR (L858R-specific) HTRF, NCI-H1975; assay type: cell-based; conditions: Table 9A; NCI-H1975 cells, 6 hours, Total EGFR HTRF; read-out: H1975 EGFR DC50
T1 construct: NCI-H1975 (harboring EGFR heterozygous L858R-T790M mutations); host or cells: NCI-H1975
Description: NCI-H1975 (harboring EGFR heterozygous L858R-T790M mutations) and NCI-H3255 (harboring EGFR heterozygous L858R mutation) were purchased from ATCC and NCI, respectively. NCI-H1975+CS (harboring EGFR heterozygous L858R-T790M-C797S mutations) was generated using CRISPR technology to introduce the additional C797S mutation by Horizon Discovery. A431 (harboring EGFR wildtype) was purchased from ATCC. RPMI 1640 no-phenol red medium and fetal bovine serum (FBS) were purchased from Gibco (Grand Island, NY, USA). Cell culture flasks and 384-well microplates were acquired from VWR (Radnor, PA, USA). Phosphorylated (pY1068) EGFR and Total EGFR (using L858R-specific detection antibody and pan-EGFR antibody for EGFR mutant cell lines and EGFR wild-type cell lines, respectively) HTRF assay kits were purchased from Cisbio (Bedford, MA, USA).
Degradation of EGFR protein containing L858R mutation or wild-type was determined based on quantification of FRET signal using a Total EGFR (L858R-specific or pan-EGFR detecting) HTRF assay kit. Phospho-EGFR (pEGFR) inhibition was determined based on quantification of FRET signal using a pY1068 EGFR HTRF assay kit. In separate assay plates, test compounds were added to the 384-well plate from a top concentration of 10 μM with 11 points, half log titration in duplicates. For each assay, 12.5 uL of cells suspended in assay media (RPMI 1640 no-phenol red medium+10% FBS) at cell densities indicated for each cell line in Table 8 below were dispensed using a multi-channel pipette to 384-well low volume white HTRF microplates containing a duplicate concentration range of test compounds and DMSO controls. The plates were kept at 37° C. with 5% CO2 for 6 hours and then incubated with either phospho EGFR or Total EGFR HTRF detection antibodies according to the cell line and EGFR mutant being assayed. Cells treated in the absence of the test compound were the negative control. Positive control was set by wells containing all reagents but no cells. FRET signal was acquired on EnVision™ Multilabel Reader (PerkinElmer, Santa Clara, CA, USA). Compound concentration that achieves 50% degradation and inhibition was reported as DC50 and IC50, respectively.

T1 sequence (P00533 25-1210 T790M/L858R): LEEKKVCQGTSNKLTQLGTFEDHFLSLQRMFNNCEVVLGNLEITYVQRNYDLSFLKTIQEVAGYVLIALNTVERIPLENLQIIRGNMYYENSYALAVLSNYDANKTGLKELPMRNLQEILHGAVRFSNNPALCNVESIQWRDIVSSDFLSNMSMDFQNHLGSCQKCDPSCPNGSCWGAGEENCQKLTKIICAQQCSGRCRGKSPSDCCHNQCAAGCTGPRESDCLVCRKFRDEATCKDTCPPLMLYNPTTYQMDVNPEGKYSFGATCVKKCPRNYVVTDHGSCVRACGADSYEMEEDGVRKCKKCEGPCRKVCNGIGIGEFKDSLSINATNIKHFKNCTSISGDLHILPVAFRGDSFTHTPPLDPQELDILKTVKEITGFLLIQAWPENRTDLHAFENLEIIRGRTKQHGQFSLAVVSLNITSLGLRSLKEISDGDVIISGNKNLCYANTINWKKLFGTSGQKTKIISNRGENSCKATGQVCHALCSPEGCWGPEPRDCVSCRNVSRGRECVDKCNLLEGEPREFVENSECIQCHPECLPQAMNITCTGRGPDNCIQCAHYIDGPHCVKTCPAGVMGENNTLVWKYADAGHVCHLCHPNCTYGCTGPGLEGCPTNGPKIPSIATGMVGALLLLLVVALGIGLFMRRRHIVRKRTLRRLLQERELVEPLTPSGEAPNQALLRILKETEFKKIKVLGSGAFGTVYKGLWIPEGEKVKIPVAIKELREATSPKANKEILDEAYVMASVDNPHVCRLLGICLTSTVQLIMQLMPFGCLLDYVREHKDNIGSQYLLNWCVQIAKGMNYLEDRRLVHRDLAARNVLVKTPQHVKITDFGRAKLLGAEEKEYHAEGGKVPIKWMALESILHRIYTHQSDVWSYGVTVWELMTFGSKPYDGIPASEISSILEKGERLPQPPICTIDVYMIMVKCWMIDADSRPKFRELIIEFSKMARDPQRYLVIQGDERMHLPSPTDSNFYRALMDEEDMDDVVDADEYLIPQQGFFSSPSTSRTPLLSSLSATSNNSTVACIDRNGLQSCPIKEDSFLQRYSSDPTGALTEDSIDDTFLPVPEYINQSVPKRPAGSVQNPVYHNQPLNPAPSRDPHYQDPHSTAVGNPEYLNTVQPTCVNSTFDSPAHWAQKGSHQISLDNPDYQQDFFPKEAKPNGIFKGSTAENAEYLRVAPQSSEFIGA

DC50 [nM]	Structure (SMILES)
< 50	O=C1CCC(Nc2ccc(C3CCN(C(=O)CN4CCC(c5ccc(-c6cc(F)c7c(c6)C(=O)N(C(C(=O)Nc6nccs6)c6ncn8c6CCC8)C7)cc5)CC4)CC3)cc2)C(=O)N1 (stereo not shown) [Compound 26, 2-(6,7-dihydro-5H-pyrrolo[1,2-c]imidazol-1-yl)-2-[6-[4-[1-[2-[4-[4-[(2,6-dioxo-3-piperidyl)amino]phenyl]-1-piperidyl]-2-oxo-ethyl]-4-piperidyl]phenyl]-4-fluoro-1-oxo-isoindolin-2-yl]-N-thiazol-2-yl-acetamide]

same assay, conditions: Table 9B; NCI-H1975 cells, 6 hours, Total EGFR HTRF; read-out: H1975 EGFR DC50

DC50 [nM]	Structure (SMILES)
< 50	O=C1CC[C@H](Nc2ccc(N3CCC(O)(C(=O)N4CC5(C4)CN(c4ccc(-c6cc(F)c7c(c6)C(=O)N(C(C(=O)Nc6nccs6)c6ncn8c6CCC8)C7)cc4)C5)CC3)c(F)c2)C(=O)N1 (single isomer, unassigned; isomer 1) [Compound 146, 2-(6,7-dihydro-5H-pyrrolo[1,2-c]imidazol-1-yl)-2-[6-[4-[2-[1-[4-[[2,6-dioxo-3-piperidyl]amino]-2-fluoro-phenyl]-4-hydroxy-piperidine-4-carbonyl]-2,6-diazaspiro[3.3]heptan-6-yl]phenyl]-4-fluoro-1-oxo-isoindolin-2-yl]-N-thiazol-2-yl-acetamide, isomer 1]
< 50	O=C1CC[C@H](Nc2ccc(N3CCC(O)(CC(=O)N4CC5(C4)CN(c4ccc(-c6cc(F)c7c(c6)C(=O)N(C(C(=O)Nc6nccs6)c6ncn8c6CCC8)C7)cn4)C5)CC3)c(F)c2)C(=O)N1 (stereo partly drawn) [Compound 110, 2-(6,7-dihydro-5H-pyrrolo[1,2-c]imidazol-1-yl)-2-(6-(6-(6-(2-(1-(4-(((S)-2,6-dioxopiperidin-3-yl)amino)-2-fluorophenyl)-4-hydroxypiperidin-4-yl)acetyl)-2,6-diazaspiro[3.3]heptan-2-yl)pyridin-3-yl)-4-fluoro-1-oxoisoindolin-2-yl)-N-(thiazol-2-yl)acetamide]
< 50	O=C1CC[C@@H](Nc2ccc(N3CCC(O)(CC(=O)N4CC5(C4)CN(c4ccc(-c6cc(F)c7c(c6)C(=O)N(C(C(=O)Nc6nccs6)c6ncn8c6CCC8)C7)cn4)C5)CC3)c(F)c2)C(=O)N1 (stereo partly drawn) [Compound 111, 2-(6,7-dihydro-5H-pyrrolo[1,2-c]imidazol-1-yl)-2-(6-(6-(6-(2-(1-(4-(((R)-2,6-dioxopiperidin-3-yl)amino)-2-fluorophenyl)-4-hydroxypiperidin-4-yl)acetyl)-2,6-diazaspiro[3.3]heptan-2-yl)pyridin-3-yl)-4-fluoro-1-oxoisoindolin-2-yl)-N-(thiazol-2-yl)acetamide]
< 50	O=C1CCC(Nc2ccc(N3CCC(O)(CC(=O)N4CCC5(C4)CN(c4ccc(-c6cc(F)c7c(c6)C(=O)N(C(C(=O)Nc6nccs6)c6ncn8c6CCC8)C7)cc4)C5)CC3)c(F)c2)C(=O)N1 (stereo not shown) [Compound 115, 2-(6,7-dihydro-5H-pyrrolo[1,2-c]imidazol-1-yl)-2-[6-[4-[7-[2-[1-[4-[(2,6-dioxo-3-piperidyl)amino]-2-fluoro-phenyl]-4-hydroxy-4-piperidyl]acetyl]-2,7-diazaspiro[3.4]octan-2-yl]phenyl]-4-fluoro-1-oxo-isoindolin-2-yl]-N-thiazol-2-yl-acetamide]
< 50	Cn1nc(N2CCC(=O)NC2=O)c2ccc([C@@H]3CCN(C(=O)CN4CC5(CCN(c6ccc(-c7cc(F)c8c(c7)C(=O)N(C(C(=O)Nc7nccs7)c7ncn9c7CCC9)C8)cc6)CC5)C4)CC3(F)F)cc21 (stereo partly drawn) [Compound 144, 2-(6,7-dihydro-5H-pyrrolo[1,2-c]imidazol-1-yl)-2-[6-[4-[2-[2-[(4S)-4-[3-(2,4-dioxohexahydropyrimidin-1-yl)-1-methyl-indazol-6-yl]-3,3-difluoro-1-piperidyl]-2-oxo-ethyl]-2,7-diazaspiro[3.5]nonan-7-yl]phenyl]-4-fluoro-1-oxo-isoindolin-2-yl]-N-thiazol-2-yl-acetamide]
< 50	O=C1CCC(Nc2ccc(N3CCC(O)(CC(=O)N4CC5(C4)CN(c4ccc(-c6ccc7cn(C(C(=O)Nc8nccs8)c8ncn9c8CCC9)nc7c6F)cn4)C5)CC3)c(F)c2)C(=O)N1 (stereo not shown) [Compound 74, 2-(6,7-dihydro-5H-pyrrolo[1,2-c]imidazol-1-yl)-2-[6-[6-[2-[2-[1-[4-[(2,6-dioxo-3-piperidyl)amino]-2-fluoro-phenyl]-4-hydroxy-4-piperidyl]acetyl]-2,6-diazaspiro[3.3]heptan-6-yl]-3-pyridyl]-7-fluoro-indazol-2-yl]-N-thiazol-2-yl-acetamide]
< 50	Cn1nc(N2CCC(=O)NC2=O)c2cc(F)c(N3CCC(O)(CC(=O)N4CC5(C4)CN(c4ccc(-c6cc(F)c7c(c6)C(=O)N(C(C(=O)Nc6nccs6)c6ncn8c6CCC8)C7)cc4)C5)CC3)cc21 (stereo not shown) [Compound 127, 2-(6,7-dihydro-5H-pyrrolo[1,2-c]imidazol-1-yl)-2-[6-[4-[2-[2-[1-[3-(2,4-dioxohexahydropyrimidin-1-yl)-5-fluoro-1-methyl-indazol-6-yl]-4-hydroxy-4-piperidyl]acetyl]-2,6-diazaspiro[3.3]heptan-6-yl]phenyl]-4-fluoro-1-oxo-isoindolin-2-yl]-N-thiazol-2-yl-acetamide]
< 50	O=C1CC[C@H](Nc2ccc(N3CCC(O)(CC(=O)N4CC5(C4)CN(c4ccc(-c6cc(F)c7cn(C(C(=O)Nc8nccs8)c8ncn9c8CCC9)nc7c6)cc4)C5)CC3)c(F)c2)C(=O)N1 (stereo partly drawn) [Compound 77, 2-(6,7-dihydro-5H-pyrrolo[1,2-c]imidazol-1-yl)-2-[6-[4-[2-[2-[1-[4-[[(3S)-2,6-dioxo-3-piperidyl]amino]-2-fluoro-phenyl]-4-hydroxy-4-piperidyl]acetyl]-2,6-diazaspiro[3.3]heptan-6-yl]phenyl]-4-fluoro-indazol-2-yl]-N-thiazol-2-yl-acetamide]
50 to 150	O=C1CCC(Nc2cc(F)c(N3CCC(CC(=O)N4CC5(C4)CN(c4ccc(-c6cc(F)c7c(c6)C(=O)N(C(C(=O)Nc6nccs6)c6ncn8c6CCC8)C7)cc4)C5)CC3)c(F)c2)C(=O)N1 (stereo not shown) [Compound 101, 2-(6,7-dihydro-5H-pyrrolo[1,2-c]imidazol-1-yl)-2-(6-(4-(6-(2-(1-(4-((2,6-dioxopiperidin-3-yl)amino)-2,6-difluorophenyl)piperidin-4-yl)acetyl)-2,6-diazaspiro[3.3]heptan-2-yl)phenyl)-4-fluoro-1-oxoisoindolin-2-yl)-N-(thiazol-2-yl)acetamide]
< 50	NC1(CC(=O)N2CC3(C2)CN(c2ccc(-c4cc(F)c5c(c4)C(=O)N(C(C(=O)Nc4nccs4)c4ncn6c4CCC6)C5)cc2)C3)CCN(c2ccc(NC3CCC(=O)NC3=O)cc2F)CC1 (stereo not shown) [Compound 162, 2-[6-[4-[2-[2-[4-amino-1-[4-[(2,6-dioxo-3-piperidyl)amino]-2-fluoro-phenyl]-4-piperidyl]acetyl]-2,6-diazaspiro[3.3]heptan-6-yl]phenyl]-4-fluoro-1-oxo-isoindolin-2-yl]-2-(6,7-dihydro-5H-pyrrolo[1,2-c]imidazol-1-yl)-N-thiazol-2-yl-acetamide]
> 150	Cn1nc(N2CCC(=O)NC2=O)c2ccc(C3CCN(CC(=O)N4C[C@H]5C[C@@H]4CN5c4ccc(-c5cc(F)c6c(c5)C(=O)N(C(C(=O)Nc5nccs5)c5ncn7c5CCC7)C6)cc4)CC3)cc21 (stereo partly drawn) [Compound 82, 2-(6,7-dihydro-5H-pyrrolo[1,2-c]imidazol-1-yl)-2-(6-(4-((1R,4R)-5-(2-(4-(3-(2,4-dioxotetrahydropyrimidin-1(2H)-yl)-1-methyl-1H-indazol-6-yl)piperidin-1-yl)acetyl)-2,5-diazabicyclo[2.2.1]heptan-2-yl)phenyl)-4-fluoro-1-oxoisoindolin-2-yl)-N-(thiazol-2-yl)acetamide]
< 50	COc1cc(N2CCC(O)(CC(=O)N3CC4(C3)CN(c3ccc(-c5cc(F)c6c(c5)C(=O)N(C(C(=O)Nc5nccs5)c5ncn7c5CCC7)C6)cc3)C4)CC2)c(F)cc1NC1CCC(=O)NC1=O (single isomer, unassigned) [Compound 173, 2-(6,7-dihydro-5H-pyrrolo[1,2-c]imidazol-1-yl)-2-[6-[4-[2-[2-[1-[4-[[2,6-dioxo-3-piperidyl]amino]-2-fluoro-5-methoxy-phenyl]-4-hydroxy-4-piperidyl]acetyl]-2,6-diazaspiro[3.3]heptan-6-yl]phenyl]-4-fluoro-1-oxo-isoindolin-2-yl]-N-thiazol-2-yl-acetamide]
